Data reported in US20040014697A1, “Melanoma antigenic peptides” (priority 1998, published 2004).

System: Hurley RI 000 tumor infiltrating lymphocytes (cytotoxic T cell specific for the G9-209 epitope encoded by the human melanoma associate protein gp100)
Experiment: sensitization of tumor infiltrating lymphocytes and interferon-γ release
Assay type: cell-based
Conditions: Hurley RI 000 TIL, G9-209 (gp100) specific
Excerpt: This invention provides novel, synthetic peptide sequences which are useful as components of melanoma vaccines and to expand immune effector cells that are specific for melanoma. […] These assay methods are known in the art and disclosed in Zugel, U. et al. (1998) J Immunol. 161:1705-1709) and Salgaller, M. L. et al. (1995) Infra. The peptide sequences of the present invention differ from the natural epitope (ITDQVPFSV) (Seq. ID No. 5) in two ways: (1) they contain mutation sin the putative HLA-A2 binding domain (amino acid residues 1, 2, and 9) conferring tighter binding to the MHC, and (2) they contain mutations in the putative T cell receptor-binding domain (amino acid residues 3-8) resulting in an apparent increased avidity for the T cell receptor. They also are novel over the synthetic peptides disclosed by Salgaller, et al. (1995) Cancer Res. 55:4972-4979.

| Sequence | sensitize tumor infiltrating lymphocytes and interferon-γ release |
| --- | --- |
| FLDQVAFXV | shown to sensitize |
| FLFSWYAXV | shown to sensitize |
